Assay: molar heat capacity at constant pressure
Conditions: 101.33 kPa, Liquid

CCCCCC[n+]1ccn(C)c1.O=S(=O)([N-]S(=O)(=O)C(F)(F)F)C(F)(F)F
Conditions | molar heat capacity at constant pressure [J/K/mol]
318.17 K, Large sample (1 g) DSC | 668
320.15 K, Small sample (50 mg) DSC | 672
323.13 K, Large sample (1 g) DSC | 672
323.15 K, modulated-temperature differential scanning calorimetry MDSC | 680
325.15 K, Small sample (50 mg) DSC | 675
328.14 K, Large sample (1 g) DSC | 673
328.15 K, modulated-temperature differential scanning calorimetry MDSC | 682
330.15 K, Small sample (50 mg) DSC | 679
333.15 K, modulated-temperature differential scanning calorimetry MDSC | 685
333.16 K, Large sample (1 g) DSC | 673
335.15 K, Small sample (50 mg) DSC | 681
338.15 K, modulated-temperature differential scanning calorimetry MDSC | 688
338.16 K, Large sample (1 g) DSC | 675
340.15 K, Small sample (50 mg) DSC | 684
343.15 K, modulated-temperature differential scanning calorimetry MDSC | 689
343.17 K, Large sample (1 g) DSC | 676
345.15 K, Small sample (50 mg) DSC | 686
348.15 K, modulated-temperature differential scanning calorimetry MDSC | 693
348.18 K, Large sample (1 g) DSC | 677
350.15 K, Small sample (50 mg) DSC | 688
353.13 K, Large sample (1 g) DSC | 680
353.15 K, modulated-temperature differential scanning calorimetry MDSC | 695
355.15 K, Small sample (50 mg) DSC | 691
358.12 K, Large sample (1 g) DSC | 682
358.15 K, modulated-temperature differential scanning calorimetry MDSC | 698
360.15 K, Small sample (50 mg) DSC | 693
363.15 K, modulated-temperature differential scanning calorimetry MDSC | 701
363.16 K, Large sample (1 g) DSC | 686
365.15 K, Small sample (50 mg) DSC | 696
368.15 K, modulated-temperature differential scanning calorimetry MDSC | 705
368.18 K, Large sample (1 g) DSC | 689
370.15 K, Small sample (50 mg) DSC | 700
373.13 K, Large sample (1 g) DSC | 691
373.15 K, modulated-temperature differential scanning calorimetry MDSC | 706
375.15 K, Small sample (50 mg) DSC | 703
378.13 K, Large sample (1 g) DSC | 694
378.15 K, modulated-temperature differential scanning calorimetry MDSC | 709
380.15 K, Small sample (50 mg) DSC | 706
383.15 K, modulated-temperature differential scanning calorimetry MDSC | 711
383.17 K, Large sample (1 g) DSC | 697
385.15 K, Small sample (50 mg) DSC | 709
388.15 K, modulated-temperature differential scanning calorimetry MDSC | 714
388.16 K, Large sample (1 g) DSC | 698
390.15 K, Small sample (50 mg) DSC | 713
393.14 K, Large sample (1 g) DSC | 703
393.15 K, modulated-temperature differential scanning calorimetry MDSC | 716
395.15 K, Small sample (50 mg) DSC | 716
398.15 K, modulated-temperature differential scanning calorimetry MDSC | 718
398.18 K, Large sample (1 g) DSC | 706
400.15 K, Small sample (50 mg) DSC | 720
403.15 K, modulated-temperature differential scanning calorimetry MDSC | 720
403.16 K, Large sample (1 g) DSC | 709
405.15 K, Small sample (50 mg) DSC | 725
408.13 K, Large sample (1 g) DSC | 712
408.15 K, modulated-temperature differential scanning calorimetry MDSC | 723
410.15 K, Small sample (50 mg) DSC | 728
413.15 K, modulated-temperature differential scanning calorimetry MDSC | 723
413.16 K, Large sample (1 g) DSC | 716
415.15 K, Small sample (50 mg) DSC | 732
418.13 K, Large sample (1 g) DSC | 719
420.15 K, Small sample (50 mg) DSC | 736
425.15 K, Small sample (50 mg) DSC | 739

CCCCn1cc[n+](C)c1.O=S(=O)([O-])C(F)(F)F [1-butyl-3-methylimidazolium trifluoromethanesulfonate]
Conditions | molar heat capacity at constant pressure [J/K/mol]
313.16 K, Large sample (1 g) DSC | 448
315.15 K, Small sample (50 mg) DSC | 449
318.15 K, Large sample (1 g) DSC | 449
320.15 K, Small sample (50 mg) DSC | 451
323.14 K, Large sample (1 g) DSC | 451
325.15 K, Small sample (50 mg) DSC | 452
328.12 K, Large sample (1 g) DSC | 451
328.15 K, modulated-temperature differential scanning calorimetry MDSC | 443
330.15 K, Small sample (50 mg) DSC | 454
333.15 K, modulated-temperature differential scanning calorimetry MDSC | 446
333.17 K, Large sample (1 g) DSC | 450
335.15 K, Small sample (50 mg) DSC | 457
338.15 K, Large sample (1 g) DSC | 453
338.15 K, modulated-temperature differential scanning calorimetry MDSC | 448
340.15 K, Small sample (50 mg) DSC | 460
343.14 K, Large sample (1 g) DSC | 455
343.15 K, modulated-temperature differential scanning calorimetry MDSC | 450
345.15 K, Small sample (50 mg) DSC | 462
348.15 K, modulated-temperature differential scanning calorimetry MDSC | 453
348.18 K, Large sample (1 g) DSC | 456
350.15 K, Small sample (50 mg) DSC | 465
353.15 K, modulated-temperature differential scanning calorimetry MDSC | 454
353.18 K, Large sample (1 g) DSC | 459
355.15 K, Small sample (50 mg) DSC | 468
358.13 K, Large sample (1 g) DSC | 463
358.15 K, modulated-temperature differential scanning calorimetry MDSC | 458
360.15 K, Small sample (50 mg) DSC | 470
363.14 K, Large sample (1 g) DSC | 467
363.15 K, modulated-temperature differential scanning calorimetry MDSC | 460
365.15 K, Small sample (50 mg) DSC | 473
368.14 K, Large sample (1 g) DSC | 471
368.15 K, modulated-temperature differential scanning calorimetry MDSC | 463
370.15 K, Small sample (50 mg) DSC | 476
373.13 K, Large sample (1 g) DSC | 472
373.15 K, modulated-temperature differential scanning calorimetry MDSC | 464
375.15 K, Small sample (50 mg) DSC | 479
378.12 K, Large sample (1 g) DSC | 474
378.15 K, modulated-temperature differential scanning calorimetry MDSC | 468
380.15 K, Small sample (50 mg) DSC | 481
383.15 K, modulated-temperature differential scanning calorimetry MDSC | 468
383.16 K, Large sample (1 g) DSC | 477
385.15 K, Small sample (50 mg) DSC | 484
388.15 K, Large sample (1 g) DSC | 479
388.15 K, modulated-temperature differential scanning calorimetry MDSC | 471
390.15 K, Small sample (50 mg) DSC | 487
393.13 K, Large sample (1 g) DSC | 482
393.15 K, modulated-temperature differential scanning calorimetry MDSC | 472
395.15 K, Small sample (50 mg) DSC | 489
398.15 K, modulated-temperature differential scanning calorimetry MDSC | 475
398.16 K, Large sample (1 g) DSC | 484
400.15 K, Small sample (50 mg) DSC | 492
403.14 K, Large sample (1 g) DSC | 487
403.15 K, modulated-temperature differential scanning calorimetry MDSC | 476
405.15 K, Small sample (50 mg) DSC | 495
408.15 K, modulated-temperature differential scanning calorimetry MDSC | 477
408.17 K, Large sample (1 g) DSC | 489
410.15 K, Small sample (50 mg) DSC | 498
413.14 K, Large sample (1 g) DSC | 491
413.15 K, modulated-temperature differential scanning calorimetry MDSC | 481
415.15 K, Small sample (50 mg) DSC | 500
418.17 K, Large sample (1 g) DSC | 494
420.15 K, Small sample (50 mg) DSC | 503
423.14 K, Large sample (1 g) DSC | 494
425.15 K, Small sample (50 mg) DSC | 506
